According to US9808445B2, “Factor IXa inhibitors” (Merck Sharp & Dohme Corp., priority 2014, dated 2017):

Molecular target: human factor IXa (Homo sapiens (Human), UniProt P00740)
Experiment: Determination of inhibitory activity against factor IXa (fluorogenic substrate SPECTROFLUOR FIXa)
Type: biochemical
Details: Factor IXa enzyme assay human
Experimental: Inhibitory activity against factor IXa was tested using the substrate SPECTROFLUOR FIXa (american diagnostica inc.; 500 West Avenue, Stamford, Conn. 06902 USA; Pr. No. 299F) and human factor IXa (american diagnostica inc.; Pr. No. 449b). Test substances were dissolved in buffer A (50 mM α,α,α-tris (hydroxymethyl) methylamine (Tris), 100 mM NaCl, 5 mM CaCl2, 15% (v/v) ethylene glycol, pH 8.0) were mixed with factor IXa (0.1 μg/ml final concentration). The enzyme reaction was started by addition of SPECTROFLUOR FIXa (100 μM final concentration). After incubation for 60 minutes at room temperature, the reaction was stopped by the addition of 20% (v/v) acetic acid solution, and then the fluorescence value was measured (Excitation Wavelength: 355 nm, Emission Wavelength; 460 nm) in a microtiter plate reader (ARVO 1420 Multilabel Counter; PerkinElmer).
The IC50 was calculated from a dilution series of the test substance with the aid of the software, Symyx Assay Explorer (Symyx Technologies, Inc.).

Sequence of human factor IXa (P00740 227-461): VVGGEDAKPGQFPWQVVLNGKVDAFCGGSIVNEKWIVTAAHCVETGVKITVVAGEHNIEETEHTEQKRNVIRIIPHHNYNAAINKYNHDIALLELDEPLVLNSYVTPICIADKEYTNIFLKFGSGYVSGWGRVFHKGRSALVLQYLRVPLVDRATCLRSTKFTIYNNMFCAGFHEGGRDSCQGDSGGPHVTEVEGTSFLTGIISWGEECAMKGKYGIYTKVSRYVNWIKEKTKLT
Sequence of human factor IXa (P00740 47-191 partner): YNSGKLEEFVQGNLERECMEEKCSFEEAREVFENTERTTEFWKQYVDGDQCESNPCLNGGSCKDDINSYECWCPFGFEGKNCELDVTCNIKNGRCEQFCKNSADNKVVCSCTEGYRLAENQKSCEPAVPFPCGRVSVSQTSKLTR

Row | SMILES | IC50 [nM]
1 | Cc1cc2c(N)noc2c(N2C[C@@H]3CC[C@H]2[C@@H]3NC(=O)c2ccc(-c3cnc(C#N)nc3)cc2Cl)n1 (relative stereo) [Example 17, N-((1S*,4S*,7R*)-2-(3-Amino-5-methylisoxazolo[5,4-c]pyridin-7-yl)-2-azabicyclo[2.2.1]heptan-7-yl)-2-chloro-4-(2-cyanopyrimidin-5-yl)benzamide] | ≤ 100
2 | Nc1noc2c(N3C[C@@H]4CC[C@H]3[C@@H]4NC(=O)c3ccc(-n4cnnc4)cc3Cl)ccc(Cl)c12 (relative stereo) [Example 5, N-((1S*,4S*,7R*)-2-(3-Amino-4-chlorobenzo[d]isoxazol-7-yl)-2-azabicyclo[2.2.1]heptan-7-yl)-2-chloro-4-(4H-1,2,4-triazol-4-yl)benzamide] | ≤ 100
3 | Nc1noc2c(N3C[C@@H]4CC[C@H]3[C@@H]4NC(=O)c3ccc(-n4cnc(CCO)c4)cc3Cl)ncc(Cl)c12 (relative stereo) [Example 14, N-((1S*,4S*,7R*)-2-(3-Amino-4-chloroisoxazolo[5,4-c]pyridin-7-yl)-2-azabicyclo[2.2.1]heptan-7-yl)-2-chloro-4-(4-(2-hydroxyethyl)-1H-imidazol-1-yl)benzamide] | ≤ 100
4 | Cc1ncn(-c2ccc(C(=O)NC3C4CCC3N(c3ncc(Cl)c5c(N)noc35)C4)c(Cl)c2)n1 (single isomer, unassigned) [Example 7.2, N-((1S*,4S*,7R*)-2-(3-Amino-4-chloroisoxazolo[5,4-c]pyridin-7-yl)-2-azabicyclo[2.2.1]heptan-7-yl)-2-chloro-4-(3-methyl-1H-1,2,4-triazol-1-yl)benzamide] | 100 to 1000
5 | Cn1nc(-c2ccc(C(=O)N[C@@H]3[C@H]4CC[C@@H]3N(c3ncc(Cl)c5c(N)noc35)C4)c(Cl)c2)ccc1=O (relative stereo) [Example 24, N-((1S*,4S*,7R*)-2-(3-Amino-4-chloroisoxazolo[5,4-c]pyridin-7-yl)-2-azabicyclo[2.2.1]heptan-7-yl)-2-chloro-4-(1-methyl-6-oxo-1,6-dihydropyridazin-3-yl)benzamide] | ≤ 100
6 | Nc1noc2c(N3C[C@@H]4CC[C@H]3[C@@H]4NC(=O)c3ccc(-c4cncnc4)cc3Cl)ncc(Cl)c12 (relative stereo) [Example 9, N-((1S*,4S*,7R*)-2-(3-Amino-4-chloroisoxazolo[5,4-c]pyridin-7-yl)-2-azabicyclo[2.2.1]heptan-7-yl)-2-chloro-4-(pyrimidin-5-yl)benzamide] | ≤ 100
7 | COc1ncc(-c2ccc(C(=O)N[C@@H]3[C@H]4CC[C@@H]3N(c3ncc(Cl)c5c(N)noc35)C4)c(Cl)c2)cn1 (relative stereo) [Example 10, N-((1S*,4S*,7R*)-2-(3-Amino-4-chloroisoxazolo[5,4-c]pyridin-7-yl)-2-azabicyclo[2.2.1]heptan-7-yl)-2-chloro-4-(2-methoxypyrimidin-5-yl)benzamide] | ≤ 100

Further lines, results first:

Row | IC50 [nM] | SMILES
8 | 100 to 1000 | Nc1noc2c(N3CC4CCC3C4NC(=O)c3ccc(-n4cncn4)cc3Cl)ncc(Cl)c12 (single isomer, unassigned) [Example 8.2, N-((1S*,4S*,7R*)-2-(3-Amino-4-chloroisoxazolo[5,4-c]pyridin-7-yl)-2-azabicyclo[2.2.1]heptan-7-yl)-2-chloro-4-(1H-1,2,4-triazol-1-yl)benzamide]
9 | ≤ 100 | Nc1noc2c(N3C[C@@H]4CC[C@H]3[C@@H]4NC(=O)c3ccc(-n4cnnc4)cc3Cl)ncc(Cl)c12 (relative stereo) [Example 6, N-((1S*,4S*,7R*)-2-(3-Amino-4-chloroisoxazolo[5,4-c]pyridin-7-yl)-2-azabicyclo[2.2.1]heptan-7-yl)-2-chloro-4-(4H-1,2,4-triazol-4-yl)benzamide]
10 | ≤ 100 | Cc1ncn(-c2ccc(C(=O)N[C@@H]3[C@H]4CC[C@@H]3N(c3nccc5c(N)noc35)C4)c(Cl)c2)n1 (relative stereo) [Example 2, N-((1S*,4S*,7R*)-2-(3-Aminoisoxazolo[5,4-c]pyridin-7-yl)-2-azabicyclo[2.2.1]heptan-7-yl)-2-chloro-4-(3-methyl-1H-1,2,4-triazol-1-yl)benzamide]
